Assay: gradient 5% acetonitrile 3 min, to 50% in 2 min, to 85% in 15 min, held 3 min, 100 µL/min
Settings: column: Zorbax Extend-C18 2.1 x 50 mm; eluents: water / acetonitrile, 0.1% formic acid
Summary of the method: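 In both positive and negative ionization mode, a quadrupole time-of-flight mass spectrometer coupled to HPLC analyzed pure standards run in mixtures of ~100 molecules. The Zorbax Extend-C18 column (2.1 × 50 mm, 1.8 μm) was operated at 100 μL/min with water and acetonitrile, each containing 0.1% formic acid. The dead volume was 40 μL and the dwell volume 900 μL. Retention time came from adduct peaks that were computationally picked and individually inspected by hand.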

RP-LC retention time [s]	Compound
1080	CCCn1c(=O)c2cc(C(=O)Nc3cccc(C)c3)nn2c2ccccc21
864	CCCCNC(=O)C(C)n1nc(C)c2nn(-c3ccccc3)c(C)c2c1=O (centres undefined)
1080	CCc1ccc(Oc2cc(N3CCC(C(=O)NCCCc4ccccc4)CC3)ncn2)cc1
715	Cc1ccsc1CN1CC(Oc2ccc(-c3noc(-c4ccncc4)n3)cc2)C1
722	COc1ccc(C2CCCN2C(=O)c2ccnn2C)cc1 (centres undefined)
1010	CSc1cccc(NC(=O)C2CCCN(c3ccc(=O)n(-c4cccc(Cl)c4)n3)C2)c1 (centres undefined)
664	Cc1cc(N2CCN(S(=O)(=O)c3ccc(F)c(F)c3)CC2)nc(N2CCOCC2)n1
747	CCN1CCN(c2cc(C)c3cc(NC(=O)/C=C/c4ccc(OCCC(C)C)cc4)ccc3n2)CC1
1020	O=C(Nc1ccc(Br)cc1F)C1CCCN(c2ccc(=O)n(-c3cccc(F)c3)n2)C1 (centres undefined)
773	CCOc1ccc(N2CCn3c2nn(CC(=O)c2ccc(OC)cc2)c(=O)c3=O)cc1
990	CCc1noc(-c2ccnc(-n3cnc(C(=O)Nc4ccc(F)cc4C)c3)c2)n1
892	Cc1cc(C)c(CNC(=O)C2CC(=O)N(c3cccc(NC(=O)C4CCC4)c3)C2)c(C)c1 (centres undefined)
888	CCN1c2ccc(C)cc2C(=O)NC12CCN(C(=O)c1ccc(F)c(Cl)c1)CC2
953	CCOc1ccccc1NC(=O)C1CCN(S(=O)(=O)c2ccc3c(c2)NC(=O)C(CC)O3)CC1 (centres undefined)
684	Cn1c(=O)n([C@H]2CCCN(C(=O)Nc3ccc4c(c3)OCCO4)C2)c2ncccc21
746	COc1ccc(-c2ccc3nc(N4CCC(C(=O)NC5CC5)CC4)sc3n2)cc1
1200	CC(C)n1c(=O)oc2cc(-c3noc(/C=C/c4ccccc4)n3)ccc21
675	O=C(NCc1ccccc1F)c1ccc2c(c1)CN(Cc1cccc(F)c1)CCO2
671	Cc1nn(-c2ccccc2)c2c1-c1sc(C(=O)N3CCN(c4ccccn4)CC3)cc1CC2
959	CC1CCN(S(=O)(=O)c2ccc3c(c2)CCCC(=O)N3CC(=O)Nc2ccc(F)cc2)CC1
597	Cc1cc(N2CCN(C(=O)c3nccc4ccccc34)CC2)nc2nncn12
989	COc1ccc(C2(C(=O)Nc3cc(-c4nnc(C)o4)sc3C)CC2)cc1

RP-LC retention time [s]	Compound
825	CC(C)CCN1CC(=O)N2Cc3[nH]c4ccccc4c3C[C@H]2C1=O
855	CCN1C(=O)c2cccnc2Sc2cc(NC(=O)Cc3ccc(C)cc3)ccc21
621	CCN1CCN(CCCNC(=O)c2nc(-c3oc4ccccc4c3C)no2)CC1
835	COc1ccc(C2(C(=O)N3CCCC(c4nc(-c5ccc(NC(C)=O)cc5)no4)C3)CC2)cc1 (centres undefined)
777	Cc1cc(Br)ccc1NC(=O)Cn1cnc2nc3c(cc2c1=O)CCCC3
803	O=C(Cc1cn(Cc2ccc(F)cc2)c2ccccc12)N1CCN(C(=O)c2ccco2)CC1
569	CCN1CCN(CCCNC(=O)c2ccc(CS(=O)c3ccc(Cl)cc3)o2)CC1 (centres undefined)
749	N#Cc1ccc(C(=O)N2CCN(c3cc(-c4cccs4)[nH]n3)CC2)cc1
676	Cc1ccc(NC(=O)CN2C(=O)CCc3cc(S(=O)(=O)N4CCCCC4C)ccc32)cc1N(C)C (centres undefined)
676	Cc1noc(C)c1-c1ccc(S(=O)(=O)N2CCN(c3ccccn3)CC2)cc1
882	CCCCNc1nc2c(c(=O)n(C)c(=O)n2C)n1CC(O)COc1ccccc1 (centres undefined)
711	Cc1cccc([N+](=O)[O-])c1NC(=O)C1CCCN(c2ccc(-n3cccn3)nn2)C1 (centres undefined)
719	CCCNC(=O)c1cc(C)nc2ccc(Cl)cc12
678	Cc1ccc(NC(=O)Cn2c(C)nc3cc4c(cc32)OCCO4)cc1C
874	Cc1ccc(NC(=O)COc2nc(C)nc3ccccc23)c(Br)c1
931	Cc1ccccc1Cn1cccc1CNC(=O)Nc1ccc2c(c1)OCO2
1050	CCCn1c(=O)c(C)nc2cc(-c3noc(C4CC(=O)N(c5ccc(C)c(C)c5)C4)n3)ccc21 (centres undefined)
1010	CC(=O)N1CCc2sc(S(=O)(=O)N3CCN(c4cc(C)ccc4C)CC3)cc2C1
575	COc1cccc(CNC(=O)CCC2CCN(c3cc(NC4CC4)ncn3)CC2)c1
831	Cc1nc(OCC(=O)Nc2ccc(Cl)cc2Cl)c2ccccc2n1
696	O=C(CN1CCc2ccccc2C1C(=O)N1CCCC1)N1CCN(c2ccccc2)CC1 (centres undefined)
698	COc1ccc(OC)c(NC(=O)Nc2c(-c3ccc(C)cc3)nc3ccccn23)c1

Second part, the compound before the results:

Compound	RP-LC retention time [s]
Fc1ccc(CN2CCCCC2c2nc(-c3cnccn3)no2)c(F)c1 (centres undefined)	738
O=C(Cn1cc(-c2nc(-c3ccc(Cl)cc3)no2)ccc1=O)NC1CCCC1	928
Cc1ccc(S(=O)(=O)NCCC(=O)O)cc1C	639
O=C(NC1CCCC1)C1CCCN(c2ccc(=O)n(-c3cccc(Cl)c3)n2)C1 (centres undefined)	845
Cc1sc2cc(C(=O)NCCN(C)C)[nH]c2c1CN1CCCCC1	536
Cc1ccc(NC(=O)Cn2cccc2-c2nnc(C3CC3)o2)c(Cl)c1	930
c1ccc(-c2csc(Nc3cccnc3)n2)cc1	674
Cc1cc(-c2c(C)sc(C)c2S(=O)(=O)NCc2ccccc2Cl)n[nH]1	1060
O=C(Nc1nnc(Cc2ccccc2)s1)C1CCN(C(=O)c2ccccc2)CC1	767
O=C(N[C@H]1C[C@@H]2C[C@H]1CN2C(=O)c1ccc(F)c(Cl)c1)c1ccccc1	772
O=C(NCc1ccccn1)c1ccc2c(c1)nc1n2CCCCC1	548
Cc1nnc2c(NC(=O)c3ccsc3)cccn12	606
O=C(NCc1ccc(F)cc1F)c1csc(C(=O)NC2CC2)n1	789
Cc1[nH]c(C(=O)N2CCCC(C(=O)NC(C)C)C2)c(C)c1C(=O)OC(C)C (centres undefined)	770
Cc1cc2ncn(Cc3ccccc3F)c2cc1C	582
CC(=O)Nc1ccc(SCCCC(=O)Nc2nc3ccccc3s2)nn1	691
O=C(Nc1cnc(N2CCCCC2)nc1)c1cc(F)cc(F)c1	984
CCOC(=O)C1CCN(C(=O)CCC2CCN(c3cc(NC4CC4)ncn3)CC2)CC1	586
Cc1ccsc1C(=O)N1C[C@@H]2CCCN3CCC[C@@H]([C@H]23)[C@H]1CCCC(=O)NCC1CC1	612
O=c1n(Cc2cccc(Br)c2)nc2c(S(=O)(=O)N3CCCC3)cccn12	887
Cc1ccccc1Nc1c(-c2ccc(N(C)C)cc2)nc2ccc(Cl)cn12	815
O=C(NCc1ccccc1Br)C1CCCN(c2cnc3nccnc3c2)C1 (centres undefined)	728
CC1(CNS(=O)(=O)c2ccc(F)c(Cl)c2)CCOCC1	861

Compound	RP-LC retention time [s]
COc1ccc(S(=O)(=O)N2C[C@@H](F)C[C@H]2C(=O)N2CCOCC2)cc1OC	640
COc1ccc(C2(C(=O)N3CCC4(CC3)CC(C)(O)CCO4)CC2)cc1 (centres undefined)	707
COCC1(O)CCOC2(CCN(C(=O)C3CCCCC3)CC2)C1 (centres undefined)	656
COC(=O)c1c(C)[nH]c(C(=O)N2CCCC(C(=O)NCCC3=CCCCC3)C2)c1C (centres undefined)	825
O=C(NCCn1c(=O)n(Cc2ccccc2)c2cccnc21)c1cccnc1	650
Cc1cc(C)cc(Nc2c(-c3ccc(O)cc3)nc3ncccn23)c1	705
CS(=O)(=O)NCc1ccc2c(c1)CCN2C(=O)c1ccc(Cl)cc1	794
COc1cc(NC(=O)c2ccccn2)ccc1Cl	994
O=C(Cn1c(C(F)(F)F)nc2cc3c(cc21)OCCO3)Nc1ccccc1	867
Cn1c(CNc2nc3ccncc3n(Cc3ccccc3)c2=O)nc2ccccc21	571
CCOC(=O)c1noc2ncnc(Nc3ccc(C)c(C)c3)c12	1070
O=C(NC1CC1)c1c2c(nc3ccc(F)cc13)CCCC2	610
O=C(c1ccc(F)c(Cl)c1)N1CCN(c2nc(CN3CCOCC3)cs2)CC1	638
COc1ccc(N2C=C(C#N)S(=O)(=O)c3c(F)cccc32)cc1OC	844
CCc1nnc(NC(=O)CSc2nc3ccccc3[nH]2)s1	656
CCNS(=O)(=O)c1cc(-c2c(CC)noc2NC(C)=O)ccc1C	698
Cc1ccc(-c2noc(Cc3nnc(-c4cc(C)cc(C)c4)o3)n2)cc1	1190
CC(C)NC(=O)CN1c2ccc(F)cc2-c2ccccc2S1(=O)=O	831
Cc1sc(-c2nc(C(C)C)cs2)cc1S(=O)(=O)N1CCCCC1	1310
Nc1cc(-c2cccs2)nn1CCO	562
Cc1ccc(C)c(NS(=O)(=O)c2cc3n(c2)CCCNC3=O)c1	663
COc1cc(OC)cc(-c2nnc(Cc3nc(-c4ccc(F)cc4)no3)o2)c1	1040
